Assay results as given in patent US9622995B2, “Treatment of disorders associated with G protein-coupled receptor 35 (GPR35)” (TEMPLE UNIVERSITY—OF THE COMMONWEALTH SYSTEM OF HIGHER …, priority 2009, dated 2017).

The compounds below were run against T1, GPR35a (Homo sapiens, UniProt Q9HC97, S294R) (assay: not given). Conditions: 3 μM; data not shown.
T1 sequence (Q9HC97 whole entry S294R): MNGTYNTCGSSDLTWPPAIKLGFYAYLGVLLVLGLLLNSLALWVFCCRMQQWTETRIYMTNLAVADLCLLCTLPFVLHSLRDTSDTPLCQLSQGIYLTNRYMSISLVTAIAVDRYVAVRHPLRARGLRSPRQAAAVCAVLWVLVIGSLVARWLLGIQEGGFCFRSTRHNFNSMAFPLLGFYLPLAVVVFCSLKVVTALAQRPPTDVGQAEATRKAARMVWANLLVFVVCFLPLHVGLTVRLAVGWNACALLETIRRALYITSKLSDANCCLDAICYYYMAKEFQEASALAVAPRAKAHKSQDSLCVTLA
In the case of `N#CC(=C(N)Sc1ccccc1N)C(C#N)=C(N)Sc1ccccc1N` [Compound U0126, 1,4-diamino-2,3-dicyano-1,4-bis(2-aminophenylthio)-butadiene], the “effect on ERK1/2 activation” value is reported as “inhibited ERK1/2 activation” and the “effect on pamoic acid-induced ERK activation” value is reported as “abolished pamoic acid-induced ERK activation”.

Each compound was assayed against T1, GPR35a (assay: β-arrestin2-GFP redistribution/aggregation in UGPR35β cells). Conditions: compared with the binaphthyl compounds.
Format: cell-based
Design: expressed in transfected cells
Excerpt: This cellular assay utilizes the intracellular β-arrestin protein as a reporter of receptor activity. […] Upon agonist-mediated GPCR activation, β-arrestins rapidly redistribute en masse to ligand-activated plasma membrane receptors (on the other hand, β-arrestins remain in the cytosol upon antagonist binding to the receptor). Activated GPCR/β-arrestin complexes will concentrate in clathrin-coated pits and/or internal vesicles where most GPCRs normally undergo internalization. At this juncture, the β-arrestin either (i) dissociates and returns to the cytoplasm, or (ii) further redistributes with the receptor into an intracellular endosomal vesicle, depending on the receptor type. It is the agonist-induced redistribution of β-arrestin-GFP into progressively smaller compartments (cytosolic compartment>plasma membrane>coated pit>endosomal compartment) that enables imaging of receptor activation.
This cell line is herein referred to as UGPR35β. Selected cells were maintained at 200 μg/ml G418® and 100 μg/ml Zeocin® at 37° C. and 5% CO2.
U20S cells expressing HA-GPR35a/βarr2-GFP (also known as UGPR35β cells) were plated in a 24-well plate onto coverslips that were coated with poly-D-lysine (0.02 mg/ml; Sigma-Aldrich, St. Louis, Mo., USA) for 1 hour. Cells were maintained at 37° C., 5% CO2 until ready for experiment (90% confluent). Cells were washed once with Hanks' balanced salt solution (HBSS, Cellgro, Mediatech, Inc, Manassas, Va., USA) comprising CaCl2 0.14 g/L, KCl 0.4 g/L, KH2PO4 0.06 g/L, MgSO4 0.097 g/L, NaCl 8 g/L, Na2HPO4 0.047 g/L, NaHCO3 0.35 g/L, and D-glucose 1.0 g/L. For receptor activation, agonist-evoked redistribution of βarr2-GFP was measured by applying the drug for 40 minutes. For measuring the effects of antagonist, agonist and antagonist were co-applied.
Cells were then fixed with 4% paraformaldehyde for 20 minutes at room temperature, followed by three washes with HBSS.
βarr2-GFP aggregates were identified by a wavelet-based, Microsoft Windows-compatible computer program written in the MatLab programming environment. A program algorithm extracts from two dimensional images those pixels that generate objects of interest that fall within a predetermined range of sizes and intensities and that are embedded among widely varying local backgrounds (L. Barak, available from the Duke University GPCR Assay Bank). Concentration-effect curves for agonist-mediated receptor activation were analyzed by non-linear regression techniques using GraphPad Prism 4.0 software (GraphPad) and data were fitted to sigmoidal dose-response curves to obtain EC50 or IC50 values. Statistical analysis was performed using one-way analysis of variance (ANOVA) followed by Dunnett's post-test or two-tailed unpaired student t test. P values of <0.05 are considered significant.
A prototypical U2OS osteosarcoma cell line that permanently expresses β-arrestin-GFP and N-terminal triple HA-tagged human GPR35a was used to screen ligands for agonism or antagonism against the GPR35 receptor. […] Endogenous receptors are invisible to the assay because there are too few endogenous receptors of any type compared to the number of β-arrestin molecules in the cell to provide a measurable response.
Upon agonist-mediated GPCR activation, β-arrestins rapidly redistribute en masse to ligand-activated plasma membrane receptors, and then the activated GPCR/arrestin complexes concentrate in clathrincoated pits and/or internal vesicles.
Concentration response curves for β-arrestin2 aggregation were obtained for compounds of interest. For this study, UGPR35β cells were treated with different concentrations of a compound of interest and images of the cells (acquired in triplicate in three or more independent experiments) were analyzed for fluorescence.
For `O=C(O)c1cc2cc(Br)ccc2cc1O` [Compound 7, 7-bromo-3-hydroxy-2-naphthoic acid], the “potency as GPR35 agonist, in words” value was “much less potent”. With `O=C(O)c1cc2ccccc2cc1O` [Compound 8, 3-hydroxy-2-naphthoic acid] the “potency as GPR35 agonist, in words” value was “much less potent”.

Same assay, conditions: concentration response analysis, read-out: β-arrestin response (EC50)
Work on `O=C(O)c1cc2cc(Br)ccc2c(Cc2c(O)c(C(=O)O)cc3cc(Br)ccc23)c1O` [Compound 3, 7,7′-dibromo-pamoic acid] yielded an EC50 of 169 nM. `O=C(O)c1cc2ccccc2c(-c2c(O)c(C(=O)O)cc3ccccc23)c1O` [Compound 4, 1,1′-binaphthyl-2,2′-diol-3,3′-dicarboxylic acid] showed an EC50 of 286 nM. In the case of `O=C(O)c1cc2cc(Br)ccc2cc1O` [Compound 7, 7-bromo-3-hydroxy-2-naphthoic acid], the EC50 is reported as 6900 nM. `O=C(O)c1cc2ccccc2cc1O` [Compound 8, 3-hydroxy-2-naphthoic acid] was tested, and the EC50 was 86000 nM. oxantel pamoate [Compound 2] was tested, and the EC50 was 91 nM.

Same assay, conditions: concentrations up to 30 μM
With “5-(4-chloro-3-methylphenyl-1-[(4-methylphenyl)methyl]-N-[(1S,2S,4R)-1,3,3-trimethylbicyclo[2.2.1]hept-2-yl]-1H-pyrazole-3-carboxamide [SR144528]” the “activation of GPR35 (distribution of βarr2-GFP different from basal state)” value was “None of the compounds at concentrations up to 30 μM activated GPR35”. In the case of `CCCCCCC(C)(C)c1cc(O)c2c(c1)OC(C)(C)C1CCC(C)CC21` (stereo not shown) [AM4056, 1-hydroxy-1′,1′-dimethylheptylhexahydrocannabinol], the “activation of GPR35 (distribution of βarr2-GFP different from basal state)” value is reported as “None of the compounds at concentrations up to 30 μM activated GPR35”. In the case of `CCCCCCC(C)(C)c1ccc([C@@H]2C[C@H](O)CC[C@H]2CCCO)c(O)c1` [CP55,940, 2-[(1R,2R,5R)-5-hydroxy-2-(3-hydroxypropyl)cyclohexyl]-5-(2-methyloctan-2-yl)phenol], the “activation of GPR35 (distribution of βarr2-GFP different from basal state)” value is reported as “None of the compounds at concentrations up to 30 μM activated GPR35”. `C=C(C)[C@@H]1CCC(C)=C[C@H]1c1c(C)cc(O)cc1O` [Compound O-1602, 5-methyl-4-[(1R,6R)-3-methyl-6-(1-methyethenyl)-2-cyclohexen-1-yl]-1,3-benzenediol] was tested, and the “activation of GPR35 (distribution of βarr2-GFP different from basal state)” value was “None of the compounds at concentrations up to 30 μM activated GPR35”. With `CCCCCCC(C)(C)c1cc(O)c2c(c1)OC(C)(C)[C@@H]1CC=C(CO)C[C@@H]21` [HU-210, (6aR,10aR)-9-(hydroxymethyl)-6,6-dimethyl-3-(2-methyloctan-2-yl)-6a,7,10,10a-tetrahydrobenzo[c]chromen-1-ol] the “activation of GPR35 (distribution of βarr2-GFP different from basal state)” value was “None of the compounds at concentrations up to 30 μM activated GPR35”. With `CCCn1c(C)c(C(=O)c2cccc3ccccc23)c2ccccc21` [JWH-015, (2-methyl-1-propyl-1H-indol-3-yl)-1-naphthalenylmethanone] the “activation of GPR35 (distribution of βarr2-GFP different from basal state)” value was “None of the compounds at concentrations up to 30 μM activated GPR35”. For `Cc1c(/C=N/N2CCCCC2)nn(-c2ccc(Cl)cc2Cl)c1-c1ccc(Cl)cc1` [PIMSR1, 5-(4-chlorophenyl)-1-(2,4-dichlorophenyl)-4-methyl-3-[(E)-piperidinoiminomethyl]-1H-pyrazole], the “activation of GPR35 (distribution of βarr2-GFP different from basal state)” value was “None of the compounds at concentrations up to 30 μM activated GPR35”. `Cc1c(/C=C/C2CCCCC2)nn(-c2ccc(Cl)cc2Cl)c1-c1ccc(Cl)cc1` [VCHSR1, 5-(4-chlorophenyl)-3-[(E)-2-cyclohexylethenyl]-1-(2,4-dichlorophenyl)-4-methyl-1H-pyrazole] was tested, and the “activation of GPR35 (distribution of βarr2-GFP different from basal state)” value was “None of the compounds at concentrations up to 30 μM activated GPR35”. In the case of `Cc1c(C(=O)c2cccc3ccccc23)c2cccc3c2n1[C@H](CN1CCOCC1)CO3` [WIN55212-2, (R)-(+)-[2,3-dihydro-5-methyl-3-(4-morpholinylmethyl)pyrrolo[1,2,3-de)-1,4-benzoxazin-6-yl]-1-napthalenylmethanone], the “activation of GPR35 (distribution of βarr2-GFP different from basal state)” value is reported as “None of the compounds at concentrations up to 30 μM activated GPR35”. With `CCCCC/C=C\C/C=C\C/C=C\C/C=C\CCCC(=O)NCCO` [anandamide] the “activation of GPR35 (distribution of βarr2-GFP different from basal state)” value was “None of the compounds at concentrations up to 30 μM activated GPR35”. For `C=C(C)[C@@H]1CCC(C)=C[C@H]1c1c(O)cc(CCCCC)cc1O` [cannabidiol], the “activation of GPR35 (distribution of βarr2-GFP different from basal state)” value was “None of the compounds at concentrations up to 30 μM activated GPR35”. With `CCCCCc1cc(O)c2c(c1)OC(C)(C)c1ccc(C)cc1-2` [cannabinol] the “activation of GPR35 (distribution of βarr2-GFP different from basal state)” value was “None of the compounds at concentrations up to 30 μM activated GPR35”. With `CCCCCc1cc(O)c2c(c1)OC(C)(C)[C@@H]1CCC(C)=C[C@@H]21` [delta-9-tetrahydrocannabinol] the “activation of GPR35 (distribution of βarr2-GFP different from basal state)” value was “None of the compounds at concentrations up to 30 μM activated GPR35”. lysophosphatidic acid was tested, and the “activation of GPR35 (distribution of βarr2-GFP different from basal state)” value was “None of the compounds at concentrations up to 30 μM activated GPR35”. In the case of lysophosphatidylinositol, the “activation of GPR35 (distribution of βarr2-GFP different from basal state)” value is reported as “None of the compounds at concentrations up to 30 μM activated GPR35”.

Same assay, conditions: mean (95% confidence interval in brackets in the text), read-out: EC50 for β-arrestin2 aggregation
Work on `O=C(O)c1cc([N+](=O)[O-])ccc1NCCCc1ccccc1` [Compound 6, 5-Nitro-2-(3-phenylpropylamino)-benzoic acid] yielded an EC50 of 4300 nM.

The compounds below were run against GPR35 (Homo sapiens, UniProt Q9HC97, S294R) (assay: not given). Conditions: UGPR35β cells.
Chain of GPR35 (Q9HC97 whole entry S294R): as above
For pyrantel tartrate, the “activity in GPR35 internalization assay, in words” value was “inactive”.

Same assay, conditions: UGPR35β cells, On-Cell Western; log(EC50)
For oxantel pamoate [Compound 2], the “log EC50 of GPR35 internalization” value was −7.772.

Same assay, conditions: read-out: EC50 of GPR35 internalization; UGPR35β cells, On-Cell Western; corresponds to the log EC50
In the case of oxantel pamoate [Compound 2], the EC50 is reported as 17 nM.
